# No end group written: not given here.
# Biological target: T1, ACE (Oryctolagus cuniculus, UniProt P12822)
# T1 sequence (P12822 34-1310): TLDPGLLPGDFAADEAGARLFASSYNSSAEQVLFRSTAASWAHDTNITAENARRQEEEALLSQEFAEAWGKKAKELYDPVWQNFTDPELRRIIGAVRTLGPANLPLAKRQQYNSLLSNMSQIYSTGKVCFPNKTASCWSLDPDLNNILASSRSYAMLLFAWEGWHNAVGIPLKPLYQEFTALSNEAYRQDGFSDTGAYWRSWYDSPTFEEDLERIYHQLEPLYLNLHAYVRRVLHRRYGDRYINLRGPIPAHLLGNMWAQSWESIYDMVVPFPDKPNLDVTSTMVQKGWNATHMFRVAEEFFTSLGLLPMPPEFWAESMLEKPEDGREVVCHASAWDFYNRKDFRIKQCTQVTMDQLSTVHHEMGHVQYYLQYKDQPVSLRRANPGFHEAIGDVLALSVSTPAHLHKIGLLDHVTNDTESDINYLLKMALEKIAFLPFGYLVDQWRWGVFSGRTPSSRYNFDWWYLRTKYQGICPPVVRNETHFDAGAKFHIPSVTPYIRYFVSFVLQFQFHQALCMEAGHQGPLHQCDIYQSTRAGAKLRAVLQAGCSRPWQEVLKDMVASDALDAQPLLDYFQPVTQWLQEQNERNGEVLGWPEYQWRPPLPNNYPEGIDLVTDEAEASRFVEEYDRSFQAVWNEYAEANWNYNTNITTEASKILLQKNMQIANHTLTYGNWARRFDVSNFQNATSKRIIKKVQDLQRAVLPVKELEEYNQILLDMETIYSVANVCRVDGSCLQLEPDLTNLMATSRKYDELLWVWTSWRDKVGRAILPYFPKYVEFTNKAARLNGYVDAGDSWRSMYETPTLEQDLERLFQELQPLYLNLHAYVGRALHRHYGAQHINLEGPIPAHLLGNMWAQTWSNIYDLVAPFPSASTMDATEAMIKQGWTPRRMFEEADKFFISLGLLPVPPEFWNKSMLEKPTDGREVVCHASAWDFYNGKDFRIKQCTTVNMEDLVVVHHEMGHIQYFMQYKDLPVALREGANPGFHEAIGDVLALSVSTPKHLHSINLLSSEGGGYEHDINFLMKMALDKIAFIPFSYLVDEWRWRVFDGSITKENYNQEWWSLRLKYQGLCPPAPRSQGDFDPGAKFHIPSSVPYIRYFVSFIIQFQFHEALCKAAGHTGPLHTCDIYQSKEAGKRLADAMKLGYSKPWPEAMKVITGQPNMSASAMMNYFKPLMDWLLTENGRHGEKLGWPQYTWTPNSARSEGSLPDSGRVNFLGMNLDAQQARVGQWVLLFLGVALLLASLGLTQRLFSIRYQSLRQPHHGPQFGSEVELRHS
# Assay: not given
# Details: pH 8.3
row,Substance,Hydrolysis of Ang-I by ACE without exogenous substrates
1,"DRVYIHPFHL [Ang-I, angiotensin I, reference compound]",hydrolyzed almost completely

# Tested on: ACE
# Assay: not given
# Details: 3 h of incubation with ACE; ref 21 (Forghani et al.); cited from earlier work
# Experimental: To investigate the sequence conservation of the exogenous substrates, the identified substrates listed on Table 1 were analyzed using Weblogo (https://weblogo.berkeley.edu/). WebLogo is the software designed to analyze the frequency of residues that appeared at various positions in a sequence library. The font size of each letter (residue) represents the frequency appearance of each residue at a certain position. The order from the most frequent to the least frequent is arranged from the top to the bottom for each residue. The chemical properties of amino acid residues are classified by ...
row,Substance,peptide loss on incubation with ACE [%]
1,CRQNTLGHNTQTSIAQ,7

# Biological target: T1, ACE
# Assay: ACE pre-incubation of milk hydrolysate peptide libraries, stable-isotope dimethyl labeling and LC-MS/MS (D/H ratio)
# Assay type: in vitro ADME, rabbit
# Parameters: ACE (EC 3.4.15.1, 1 unit) from rabbit lungs; purchased Sigma Chemical Co. (St. Louis, MO, USA); host or cells: rabbit lungs (tissue-derived enzyme)
# Details: milk hydrolysate peptide library (<3 kDa); ACE-treated (0.05 mU/μL ACE, borate buffer, 37 °C, 3 h: 1.5 h static + 1.5 h 200 rpm; D-labeled) versus untreated (H-labeled) peptide; intensity ratio in LC-MS; <1 = hydrolysed by ACE
# Experimental: The peptide libraries (200 μg) dissolved in borate buffer were equally divided into two parts, one was without any treatment (control group); the other part (experimental group) was incubated with 0.05 mU/μL ACE at 37℃ for 1.5 h statically, followed by gentle shaking at 200 rpm for another 1.5 h, and then the ACE reaction was quenched using 60 μL of 1N HCl. After lyophilization, both samples were redissolved in 100 μL of 0.1M sodium acetate and modified using stable-isotope dimethyl labeling according to the previous study with slight modifications. Briefly, the control group (without ACE incubation) had 4 μL of formaldehyde (37% solution in H2O) and 1 M NaBH3CN (10 μL) added to it; the experimental group had 20% formaldehyde-d2 (8 μL) and 1M NaBH3CN (10 μL) added to it. After 1h, 5 μL of ammonia (28% solution in H2O) were added individually to both groups to stop the reaction. The experimental group and the control group were combined and desalted using the PepClean™C18 spin column. The resulting peptide mixture was lyophilized and kept at −20 °C prior to LC-MS/MS analysis. Formaldehyde is known to the state of California to cause cancer; special caution was taken including the use of surgical gloves and a fume hood when formaldehyde was handled.
# The combined mixture re-dissolved in 5% ACN containing 0.1% formic acid was separated using an Ultimate 3000 RSLC system (Dionex, Sunnyvale, CA, USA) coupled with a C18 column (Acclaim PepMap RSLC, 75 μm × 150 mm, Thermo Scientific, Waltham, Middlesex, MA, USA) and analyzed with a Thermo Q-ExactiveTM mass spectrometer (Thermo Scientific Inc., Waltham, Middlesex, MA, USA). The elution solution was composed of mobile phase A (0.1% formic acid in water) and B (0.1% formic acid in 95% acetonitrile). The elution gradient was arranged as follows: (i) isocratic elution using 1% B in the first 5.5 min for sample loading, (ii) linear gradient from 1% to 60% B in the next 39.5 min, (iii) linear gradient from 60% to 80% B in the following 10 min, and finally (iv) isocratic elution using 1% solution B for 10 min. The flow rate applied in the LC separation was maintained at 250 µL/min. The separated peptides were analyzed and quantified using Q-ExactiveTM mass spectrometry which was operated in the data-dependent mode and switched automatically between MS and HCD-MS2. A full MS scan was carried out in a 100 and 1500 m/z range, and the 14 ions of the highest intensities were selected for MS/MS scans. The RAW data were converted to the MGF file format followed by database-assisted sequencing with PEAKS DB using PEAKS Studio X (Bioinformatics Solutions Inc., Waterloo, ON, Canada). The parameters used for peptide identification were listed as follows: (1) Database: UniProt_SwissProt (Bos taurus); (2) Enzyme: pepsin, trypsin, α-chymotrypsin, or GI (the combination of these three proteases); (3) Type of enzyme: Unspecific; (4) Instrument: Orbitrap; (5) Parent mass error tolerance: 20 ppm; (6) Fragment mass error tolerance: 0.6 Da; (7) Variable modifications: Dimethyl (K), Dimethyl (N-term), Dimethyl:2H(4) (K), and Dimethyl:2H(4) (N-term) were used for identification and quantitative analysis. The sequence identified through the database was validated by manually matching with the MS/MS spectrum in the raw data. In addition to MS/MS analysis coupled with PEAKS studio, the ACE’s substrate candidates were further confirmed using the synthetic peptides with corresponding sequences by comparison with their LC retention times, m/z values, and MS/MS spectra. The relative abundances of hydrogen (H) and deuterium (D) labeled peptides were quantified based on the peak areas in their corresponding selective ion chromatograms (SIC). The D/H ratio of identified peptide with the same sequence was further examined by their relative signal intensities in MS spectrum. Theoretically, the D/H ratio of the isobaric pair should stay at 1 if the peptide will not react with ACE. […]
row,Substance,D/H Ratio
1,QVSLNSGY [QVSLNSGY],0.56
2,SIVHPSY [SIVHPSY],0.18
3,KVIPYVRY [KVIPYVRY],0.66
4,DMPIQAF [DMPIQAF],0.55
5,HQPHQPLPPTVM [HQPHQPLPPTVM],0.40
6,VAPFPEVFG [VAPFPEVFG],0.83
7,DMPIQAFL [DMPIQAFL],0.59
8,LRPVAAEIY [LRPVAAEIY],0.65
9,HQGLPQEVLNENLLR [HQGLPQEVLNENLLR],0.76
10,NAVPITPTLNR [NAVPITPTLNR],0.61
11,SAYPGQITSN [SAYPGQITSN],0.65
12,ALPMHIR [ALPMHIR],0.15
13,FPQYLQY [FPQYLQY],0.12
14,VVPPFLQPEVM [VVPPFLQPEVM],0.80
15,IPPLTQT [IPPLTQT],0.47
16,YPVEPFTESQSL [YPVEPFTESQSL],0.76
17,HPHPHLSF [HPHPHLSF],0.15
18,INNQFLPYPYY [INNQFLPYPYY],0.33
19,AVPYPQR [AVPYPQR],0.44
20,MFPPQSVL [MFPPQSVL],0.21
21,ALNEINQFY [ALNEINQFY],0.84
22,QLDAYPSGAW [QLDAYPSGAW],0.47
23,SRYPSYGLN [SRYPSYGLN],0.81
24,TTMPLW [TTMPLW],0.15
25,FALPQYLK [FALPQYLK],0.94

# Biological target: T1, ACE
# Assay: ACE hydrolysis of synthetic substrate candidates monitored by LC-MS at different incubation times
# Assay type: in vitro ADME, rabbit
# Parameters: ACE (EC 3.4.15.1, 1 unit) from rabbit lungs; purchased Sigma Chemical Co. (St. Louis, MO, USA); host or cells: rabbit lungs (tissue-derived enzyme)
# Details: synthetic peptide incubated with ACE, 37 °C, 3 h, LC-MS/MS
# Experimental: To confirm the reactivity of the identified peptide candidates towards ACE, the synthetic peptides were individually mixed with ACE and incubated at 37 °C for 3 h. The remaining peptide substrate and the resulting product were analyzed using LC-MS/MS. Meanwhile, the degradation rate of each peptide was monitored every 30 min using LC-MS. The percentage of the remaining substrate (RS%) at each time point was calculated as As/(As + Ap) 100%. In which, As is the selective ion chromatogram (SIC) peak area of remaining substrate and Ap is the peak area of the resulting product. The RS% was further compared with the D/H ratio obtained in Section 2.4.
row,Substance,Hydrolysis of synthetic peptide by ACE (result in words)
1,LYQGPIVL [LYQGPIVL],survive from ACE’s hydrolysis
2,LVYPFPGPLHNSL [LVYPFPGPLHNSL],readily hydrolyzed by ACE
3,LVYPFPGPIHN [LVYPFPGPIHN],retard the second cleavage
4,NIPPLTQTPV [NV-10],avoid ACE’s hydrolysis
5,IASGEPTSTPTTE [IE-13],avoid ACE’s hydrolysis
6,VRSPAQILQ [VRSPAQILQ],survive from ACE’s hydrolysis

# — publication PMC9965520, “An Efficient Peptidomics Screening for Exogenous Substrates and Inhibitory Peptides of the Dipeptidase ACE from Milk Hydrolysate” (Pharmaceutics, 2023)
